Assay results as given in US20060052415A1, “N-{2-chloro-4-[(6,7-dimethoxy-4-quinolyl)oxy]phenyl}-n'-(5-methyl-3-isoxazolyl)urea salt in crystalline form” (KIRIN BEER KABUSHIKI KAISHA, priority 2002, published 2006).
Entries after “also recorded” stand apart in the source; their conditions may differ.

Columns and labels:
[1] = Stability of crystal against physical stress (grinding in a mortar); type: physicochemical; conditions: ground in an agate or porcelain mortar, hydrochloride
Method: (§1) X-ray diffraction patterns of crystals were taken using Cu-Kα radiation (40 kV, 40 mA, λ=1.541 angstroms) with a powder X-ray diffraction apparatus (X-ray diffraction RINT DMAX-2000, manufactured by Rigaku Industrial Corporation) (scanning speed: 5 degrees/min, scanning range: 5.000 to 40.000 degrees, filter: Kβ filter). Based on powder X-ray diffraction patterns thus obtained, peak positions and relative intensity (%) were determined for peaks with a relative intensity of not less than 20%.
Stability of Crystal Against Physical Stress
Each of form I to III crystals of hydrochloride, form I crystal of nitrate, form I and II crystals of sulfate, form I crystal of methanesulfonate, form I and II crystals of p-toluenesulfonate, and form I and II crystals of maleate of N-{2-chloro-4-[(6,7-dimethoxy-4-quinolyl)oxy]phenyl}-N′-(5-methyl-3-isoxazolyl)urea was ground in a mortar. In grinding each crystal in the mortar, about 1 mg of each crystal sample was placed and ground in an agate mortar or a porcelain mortar. For each sample before and after grinding, a powder X-ray diffraction chart was measured by method 1 to evaluate the stability of the crystal against physical stress.

[2] = Stability of crystal under high humidity (40° C., 75% RH) conditions; type: physicochemical; conditions: stored at 40° C. and 75% RH for 2 weeks, hydrochloride
Method: as §1
Stability of Crystal Under High Humidity (40° C., 75% RH) Conditions
(§2) Form I to III crystals of hydrochloride, form I crystal of nitrate, form I and II crystals of sulfate, form I crystal of methanesulfonate, form I and II crystals of p-toluenesulfonate, and form I and II crystals of maleate of N-{2-chloro-4-[(6,7-dimethoxy-4-quinolyl)oxy]phenyl}-N′-(5-methyl-3-isoxazolyl)urea were stored under conditions of 40° C. and 75% RH for 2 weeks. […]

[3] = Hygroscopicity of crystal (weight change on storage); type: physicochemical; conditions: 40° C. and 75% RH, hydrochloride; for hygroscopicity (level, in words): 2 weeks, based on weight change
Method: Hygroscopicity of Crystal
Form I to III crystals of hydrochloride, form I crystal of nitrate, form I and II crystals of sulfate, form I crystal of methanesulfonate, form I and II crystals of p-toluenesulfonate, and form I and II crystals of maleate of N-{2-chloro-4-[(6,7-dimethoxy-4-quinolyl)oxy]phenyl}-N′-(5-methyl-3-isoxazolyl)urea were stored under conditions of 40° C. and 75% RH for 2 weeks. Before and after the storage, the weight of each crystal was measured to determine a difference in weight between before the storage and after the storage.
For each crystal, the hygroscopicity was evaluated based on the weight change.

[4] = Stability of crystal under heating (73° C.) conditions; type: physicochemical; conditions: stored at 73° C. for 2 weeks, hydrochloride
Method: as §1
Stability of Crystal Under Heating (73° C.) Conditions
as §2, with “at 73°” for “under conditions of 40°”, “C.” for “C. and 75% RH”

[5] = Suspending crystal in aqueous methylcellulose solution (administration solution for rodents); type: physicochemical
From the text: In the most preferred embodiment of the present invention, the crystal of a salt according to the present invention is form I crystal of N-{2-chloro-4-[(6,7-dimethoxy-4-quinolyl)oxy]phenyl}-N′-(5-methyl-3-isoxazolyl)urea hydrochloride. This form I crystal of hydrochloride has all physicochemical properties that are desired as pharmaceutical preparations for oral administration. The powder X-ray diffraction pattern of form I crystal of hydrochloride is not similar to that of other crystalline forms of hydrochloride (for example, form II crystal and form III crystal). Therefore, the mixing ratio of crystalline forms can be easily determined. […] Therefore, problems with administration are less likely to occur. Also in this respect, form I crystal of hydrochloride is advantageous.

tumor = conditions: in vivo; cited from earlier work
[6] = listed as form I crystal of hydrochloride
[7] = listed as form III crystal of hydrochloride

SMILES	stability of crystal against physical stress (powder X-ray diffraction before and after grinding) [1, 6]	stability of crystal under high humidity conditions (change of powder X-ray diffraction chart) [2, 6]	hygroscopicity (level, in words) [3]	weight change (hygroscopicity) After 1 week [3] [%]	weight change (hygroscopicity) After 2 weeks [3] [%]	weight change (hygroscopicity) After 2 days [3] [%]	stability of crystal under high temperature conditions (change of powder X-ray diffraction chart) [4, 6]	formation of gel on suspending [5]	stability of crystal against physical stress (powder X-ray diffraction before and after grinding) [1, 7]	stability of crystal under high humidity conditions (change of powder X-ray diffraction chart) [2, 7]	stability of crystal under high temperature conditions (change of powder X-ray diffraction chart) [4, 7]	tumor enhancement inhibitory activity (tumor)
COc1cc2nccc(Oc3ccc(NC(=O)Nc4cc(C)on4)c(Cl)c3)c2cc1OC.Cl [Form I crystal of hydrochloride, N-{2-chloro-4-[(6,7-dimethoxy-4-quinolyl)oxy]phenyl}-N′-(5-methyl-3-isoxazolyl)urea hydrochloride]	excellent stability	excellent stability	low level of hygroscopicity; also recorded: on a low level	0.01	0.00	0.00	excellent stability	does not undergo a deterioration that results in the formation of gel				
COc1cc2nccc(Oc3ccc(NC(=O)Nc4cc(C)on4)c(Cl)c3)c2cc1OC.Cl [Form III crystal of hydrochloride, N-{2-chloro-4-[(6,7-dimethoxy-4-quinolyl)oxy]phenyl}-N′-(5-methyl-3-isoxazolyl)urea hydrochloride]			highly hygroscopic	1.49	1.93	1.06			lowering in peak intensity	converted to form I crystal	converted to form II crystal	
COc1cc2nccc(Oc3ccc(NC(=O)Nc4cc(C)on4)c(Cl)c3)c2cc1OC [N-{2-chloro-4-[(6,7-dimethoxy-4-quinolyl)oxy]phenyl}-N′-(5-methyl-3-isoxazolyl)urea]												has tumor enhancement inhibitory activity in vivo
